Laboratory results as given in patent US20230031369A1, “THERAPEUTIC INTERACTIONS OF LEUCOMETHYLTHIONINIUM” (WisTa Laboratories Ltd., priority 2019, published 2023).
“Also recorded” adds a separate entry of the source.

Key:
[1] = test system: ACh levels in the hippocampus; test: Hippocampal ACh levels with scopolamine and 100 nanomolar rivastigmine in the perfusion fluid; format: in vivo, wild type mice
Method: Under the condition of cholinesterase inhibition used in these experiments (a very small amount of a cholinesterase inhibitor, 100 nanomolar rivastigmine, added to the perfusion fluid), ACh levels in the hippocampus rise, and when they rise strongly enough, they limit additional ACh release by activating pre-synaptic muscarinic receptors of the M2/M4 subtype (so-called negative feedback receptors).
In this situation, adding scopolamine (1 μM) to the perfusion fluid blocks these presynaptic receptors and, as a consequence, ACh levels rise by 3-5 fold. The fact that LMTM is not additive with rivastigmine in these experiments supports the conclusion that LMTM has a different mechanism of action from rivastigmine. In other words, although LMTM has been described as being a weak inhibitor of cholinesterases in high concentrations, the present effects seem to be unrelated to cholinesterase inhibition, because there is no additive effect with small quantities of rivastigmine.

[2] = test system: acetylcholine (ACh) levels in hippocampus; test: Hippocampal ACh levels by microdialysis and HPLC, wild-type mice; format: in vivo; settings: LMTM after prior treatment with rivastigmine
Method: (§1) For measurement of acetylcholine (ACh) levels in hippocampus, animals (wild-type or L1) were treated with LMTM (5 mg/kg/day for 2 weeks) after prior treatment for 2 weeks with or without rivastigmine (0.5 mg/kg/day). Rivastigmine was administered subcutaneously with an Alzet minipump whereas LMTM was administered by oral gavage. Levels of ACh were measured in hippocampus using an implanted microdialysis probe and HPLC analysis of the extracellular fluid.

[3] = test system: acetylcholine (ACh) levels in hippocampus; test: Hippocampal ACh levels by microdialysis and HPLC, L1 mice; format: in vivo, tau transgenic L1 mice
Method: as §1

[4] = test system: wild-type mice; test: Problem solving task in the open field water maze, wild-type mice; format: in vivo; settings: LMTM
Method: (§2) Wild-type and L1 mice (n=7-16 for each group) were pre-treated with rivastigmine (0.1 or 0.5 mg/kg/day) or memantine (2 or 20 mg/kg/day) or vehicle for 5 weeks by gavage. For the following 6 weeks, LMTM (5 and 15 mg/kg) or vehicle were added to this daily treatment regime, also by gavage. Animals were tested behaviourly during weeks 10 and 11 using a problem solving task in the open field water maze and then sacrificed for immunohistochemical and other tissue analyses.

[5] = test system: tau transgenic L1 mice; test: Problem solving task in the open field water maze, L1 mice; format: in vivo
Method: FIG. 7. Effect of combined administration of Memantine and LMTM on problem solving deficits in female Line 1 mice, aged 5.5 months at the beginning of the study. Memantine was administered at 20 mg/kg and LMTM at 15 mg/kg. Mice were treated with vehicle or Memantine for 5 weeks prior to Memantine plus LMTM treatment for 6 weeks, with the mice being tested in the water maze task over weeks 10 and 11.
as §2

[6] = test system: glutamate release from brain synaptosomal preparations; test: Glutamate release from brain synaptosomal preparations, L1 mice; format: in vivo, tau transgenic L1 mice
[7] = test system: SNARE complex proteins (SNAP25, syntaxin and VAMP2); test: Immunohistochemistry of SNARE complex proteins, L1 mice; format: in vivo, tau transgenic L1 mice; settings: combination of LMTM with chronic rivastigmine pretreatment
Method: FIG. 3. Treatment effects of LMTM alone or following chronic pretreatment with rivastigmine in tau transgenic L1 mice on levels of (A) SNARE complex proteins (SNAP25, syntaxin and VAMP2) and (B) α-synuclein measured immunohistochemically as the mean value for hippocampus, visual cortex, diagonal band and septum. (*, p<0.05; ***, p<0.001; ****, p<0.0001).
as §2
(§3) Translating doses from mice to humans requires consideration of a number of factors. […] The higher dose of 15 mg/kg/day is generally required for LMTM to be fully effective in the L1 mouse model (Melis et al., 2015a). […] Tissue sectioned for immunohistochemistry was labelled with antibody and processed using Image J to determine protein expression densitometrically. Data are presented as Z-score transformations without units.

[8] = 8 mg/day dose; split at Cmax threshold of […]; from WO2020/020751; cited from earlier work
[9] = ADAS-cog change after withdrawal of LMTM 8 mg/day following 18 months of treatment; format: in vivo, human
Method: Following 18 months of treatment with 8 mg/day LMTM, subjects were required to have a 1 month “washout” followed by cognitive assessment of change. The group was split according to whether they has received LMTM as an add-on to existing symptomatic therapy (AChEI, Memantine, collectively abbreviated to “Achmem”) or as a monotherapy.
The group was further analysed in terms of subjects who had received a high Cmax exposure or a low one.

[10] = test system: mitochondrial complex IV; test: Complex IV activity in brain mitochondria, wild-type mice; format: in vivo; settings: following LMTM treatment
Method: as §2

[11] = test system: mitochondrial complex IV; test: Complex IV activity relative to citrate synthetase activity in brain mitochondria, L1 mice; format: in vivo, tau transgenic L1 mice
Method: as §2

[12] = biological target: T1, core tau unit of the PHF (Homo sapiens, UniProt P10636); test: Tau immunoreactivity (relative optical density) in vertical diagonal band, L1 mice; format: in vivo, tau transgenic L1 mice
T1 construct: three-repeat tau fragment encompassing residues 296-390 of the 2N4R tau isoform; expressed in transfected cells; host or cells: transgenic L1 mice (NMRI strain, Thy 1 promotor), brain sections of the vertical diagonal band
Method: FIG. 5. Treatment effects of LMTM alone or following chronic pretreatment with rivastigmine in tau transgenic L1 mice compared with vehicle-treated wild-type mice on levels of tau immunoreactivity (relative optical density) (A) and neurons immunoreactive for choline acetyltransferase (B) in vertical diagonal band. (*, p<0.05; **, p<0.01; ***, p<0.001).
as §2, §3

[13] = test system: electron transfer chain; settings: acting as a supplementary electron carrier in the electron transfer chain; cited from earlier work
[14] = test system: pathological tau; settings: in vivo (Congdon et al., 2012); cited from earlier work
[15] = test system: cholinesterase; settings: reported (Pfaffendorf et al., 1997; Deiana et al., 2009); cited from earlier work
[16] = LMTM preceded by chronic rivastigmine

T1 sequence (P10636 613-707): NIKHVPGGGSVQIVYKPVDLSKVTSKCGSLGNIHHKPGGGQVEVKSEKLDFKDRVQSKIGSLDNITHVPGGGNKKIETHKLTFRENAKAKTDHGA

For `CN1[C@@H]2C[C@@H](OC(=O)[C@H](CO)c3ccccc3)C[C@H]1[C@@H]1O[C@@H]12` [scopolamine, reference compound], the “rise in ACh levels” value ([1]; scopolamine 1 μM added to the perfusion fluid containing 100 nanomolar rivastigmine) was 3-5 fold.
With `CN(C)c1ccc2c(c1)Sc1cc(N(C)C)ccc1N2` [LMTM, Leuco-methylthioninium bis(hydromethanesulfonate)] the “reduction in basal ACh levels in hippocampus” value [2] was 30%, the “ACh release in the hippocampus” value ([3]; LMTM alone) was “increased; also recorded: significant increases” and the “ACh release in the hippocampus” value [3, 16] was “None of these effects were seen”. The spatial recognition memory [4] was “not associated with improvement”, the “behavioural changes (spatial learning)” value ([5]; LMTM alone) was “reversed deficits; also recorded: significant increases” and the behavioural changes [5, 16] was “None of these effects were seen”. The ACh levels ([1]; wild type mice, scopolamine experiments, combination of LMTM with rivastigmine) was “inhibitory; also recorded: not additive”, the “increase in ACh levels” value ([1]; wild type mice, scopolamine used to increase ACh levels, LMTM alone) was “less than that seen with rivastigmine alone” and the “glutamate release from brain synaptosomal preparations” value ([6]; LMTM alone) was “increased; also recorded: significant increases; also recorded: restoration of normal glutamate release”. For the same molecule, the “glutamate release from brain synaptosomal preparations” value [6, 16] was “None of these effects were seen”, the SNARE complex proteins [7] was “levels below those seen in the absence of LMTM treatment” and the “treatment difference in high and low Cmax patients” value [8] was −3.4 ADAS-cog units. The “ADAS-cog change following LMTM withdrawal” value ([9]; 18 month LMTM 8 mg/day as add on to symptomatic therapy (AChEI, Memantine), high exposure (Cmax) group, p-value=0.0021) was −0.98, the “ADAS-cog change following LMTM withdrawal” value ([9]; 18 month LMTM 8 mg/day as add on to symptomatic therapy (AChEI, Memantine), lower exposure group, p-value=0.0855) was 0.51 and the “ADAS-cog change following LMTM withdrawal” value ([9]; 18 month LMTM 8 mg/day monotherapy, high exposure (Cmax) group, p-value=0.1651) was 0.73. For the same molecule, the “ADAS-cog change following LMTM withdrawal” value ([9]; 18 month LMTM 8 mg/day monotherapy, lower exposure group, p-value=0.0011) was 2.29, the “complex IV activity” value [10] was “did not show any increase; also recorded: no effect” and the “mitochondrial complex IV activity” value ([11]; LMTM alone) was “increased; also recorded: significant increases; also recorded: significant enhancement; also recorded: strong effect”. The “mitochondrial complex IV activity” value [11, 16] was “None of these effects were seen; also recorded: eliminated this effect”, the “immunoreactivity against the core tau unit of the PHF measured by optical density” value ([12]; LMTM after prior chronic treatment with rivastigmine) was “persist” and the “immunoreactivity against the core tau unit of the PHF measured by optical density” value ([12]; LMTM alone) was “reduced”.
For `CN(C)c1ccc2nc3ccc(=[N+](C)C)cc-3sc2c1` [MT, Methylthioninium], the “concentrations at which mitochondrial activity is enhanced” value [13] is listed as 10 to 100 nM, the “concentration range increasing clearance of pathological tau via enhancement of autophagy” value [14] is listed as 10-20 nM and the cholinesterase inhibition [15] is listed as “weak cholinesterase inhibitor”.
